Article PMC10979501, “Protein Structure-Based Organic Chemistry-Driven Ligand Design from Ultralarge Chemical Spaces” (ACS Central Science, 2024)
Where two headings read alike, the source gives them in different places.

Assays:
human recombinant DRD3 = target: T1, human recombinant DRD3 (Homo sapiens, UniProt P35462); assay: [3H]-methylspiperone binding inhibition, human recombinant DRD3 in CHO cells (Eurofins Discovery assay #48); details: for inhibition at 10 µM: 10 μM competitor, single concentration, mean of two independent experiments, CHO cells, read-out: percentage of inhibition of [3H]-methylspiperone binding; for ligand efficiency (LE): SpaceDock hits, LE as in ref 53; for Ki: from six concentrations dose-response curves, read-out: inhibition constant (Ki)
T1 construct: host or cells: CHO cells
T1 sequence (P35462 whole entry): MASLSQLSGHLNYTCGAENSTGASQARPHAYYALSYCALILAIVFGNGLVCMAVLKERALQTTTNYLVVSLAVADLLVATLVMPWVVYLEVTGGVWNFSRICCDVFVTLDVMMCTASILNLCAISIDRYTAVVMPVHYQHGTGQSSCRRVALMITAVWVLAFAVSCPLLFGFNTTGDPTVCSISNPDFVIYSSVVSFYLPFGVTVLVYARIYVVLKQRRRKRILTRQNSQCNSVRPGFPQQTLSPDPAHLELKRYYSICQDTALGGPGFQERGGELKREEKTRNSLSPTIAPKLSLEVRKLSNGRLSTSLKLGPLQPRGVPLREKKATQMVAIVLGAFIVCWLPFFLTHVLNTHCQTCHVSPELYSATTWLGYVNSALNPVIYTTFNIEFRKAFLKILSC
Protocol: Fig. S8. Binding of six SpaceDock hits to the human dopamine D3 receptor, expressed by the
percentage of inhibition of [3H]‐methylspiperone binding to human recombinant DRD3 in CHO cells
(Eurofins‐Discovery assay #48). Inhibition constants (Ki) were determined from six concentrations

human DRD3 = details: cited from earlier work

CCc1cc2c(c(C(=O)NCCN(C(C)C)C3CC3)c1)OCC2 [#1]
inhibition at 10 µM (human recombinant DRD3): 95.1 ± 1.1% | ligand efficiency (LE) (human recombinant DRD3): 0.40 | Ki (human recombinant DRD3): 360 nM

CCCN(CCC)CCNC(=O)c1cccc2c(C)c(C)[nH]c12 [#25]
inhibition at 10 µM (human recombinant DRD3): 90.7 ± 1.6% | ligand efficiency (LE) (human recombinant DRD3): 0.36 | Ki (human recombinant DRD3): 1400 nM

CCc1ccc2occ(C(=O)NCC3CCCN(CC)C3)c2c1 (stereo not drawn) [#33]
inhibition at 10 µM (human recombinant DRD3): 34.3 ± 1.3%

CCCN(CCC)CCNC(=O)C1CCc2cnn(C)c2C1 (stereo not drawn) [#35]
inhibition at 10 µM (human recombinant DRD3): 13.7 ± 1.2%

CC(C)N(CCNC(=O)c1cn(C)nc1C1CCOC1)C1CC1 (stereo not drawn) [#36]
inhibition at 10 µM (human recombinant DRD3): 21.3 ± 0.4%

CCCN1CCCC1CNC(=O)c1c[nH]cc1-c1ccccc1 (stereo not drawn) [#66]
inhibition at 10 µM (human recombinant DRD3): 88.2 ± 0.8% | ligand efficiency (LE) (human recombinant DRD3): 0.40 | Ki (human recombinant DRD3): 320 nM

CCc1oc(C)cc1C(=O)NCC1CCN(CC)CC1 [#97]
inhibition at 10 µM (human recombinant DRD3): 13.6 ± 0.2%

CCCN(CCNC(=O)c1cccc2sccc12)C(C)C [#107]
inhibition at 10 µM (human recombinant DRD3): 80.2 ± 0.5% | ligand efficiency (LE) (human recombinant DRD3): 0.39 | Ki (human recombinant DRD3): 1570 nM

CCN(CC)CC(CC)(CC)NC(=O)c1cccc2nc(C)sc12 [#110]
inhibition at 10 µM (human recombinant DRD3): -5.1 ± 4.5%

CCCN(CC)CCNC(=O)c1cc(Br)cc2[nH]cnc12 [#142]
inhibition at 10 µM (human recombinant DRD3): 88.7 ± 0.1% | ligand efficiency (LE) (human recombinant DRD3): 0.43 | Ki (human recombinant DRD3): 401 nM

CCCN(CC)CCNC(=O)c1nn(C)c2c1CSCC2 [#161]
inhibition at 10 µM (human recombinant DRD3): 72.6 ± 0.9% | ligand efficiency (LE) (human recombinant DRD3): 0.39 | Ki (human recombinant DRD3): 1650 nM

Cc1nc2sccn2c1C(=O)NCC1CCCCC1N1CCCC1 (stereo not drawn) [#215]
inhibition at 10 µM (human recombinant DRD3): 4.7 ± 1.8%

CCN1CCC[C@H]1CNC(=O)c1c(-c2ccccc2)noc1C [#239]
inhibition at 10 µM (human recombinant DRD3): 3.5 ± 3.1%

Cc1ccc(C(CNC(=O)c2cc(C)nc3c2cnn3C)N2CCCC2)cc1 (stereo not drawn) [#252]
inhibition at 10 µM (human recombinant DRD3): 26.2 ± 0.8%

CCCN(CCC)CCNC(=O)c1cccc2oc(C)nc12 [#256]
inhibition at 10 µM (human recombinant DRD3): 44.4 ± 0.8%

CCN(CC)CCNC(=O)c1cc(Cl)c(N)cc1OC [CHEMBL86]
Ki (human DRD3; closest ChEMBL ligand): 23 nM

COc1cc2c(c(C(=O)NC[C@H]3CCCN3Cc3ccccc3)c1)OCC2 [CHEMBL148352]
Ki (human DRD3; closest ChEMBL ligand): 120 nM

Cc1ccc(C)c(C(=O)NCCCCN2CCN(c3cc(C)ccc3C)CC2)c1 [CHEMBL1258495]
Ki (human DRD3; closest ChEMBL ligand): 28 nM

C#CC1CCC(N(CCC)CCCCNC(=O)c2ccc(OCCCc3cnn(CCCC)n3)c(OC)c2)CC1 (stereo not drawn) [CHEMBL2397478]
Ki (human DRD3; closest ChEMBL ligand): 1 nM

CCCN(CCCCNC(=O)c1cccc2cc[nH]c12)CC1CC1c1cccc(F)c1 (stereo not drawn) [CHEMBL4590839]
Ki (human DRD3; closest ChEMBL ligand): 18.8 nM

CCc1cc(Cl)c(OC)c(C(=O)NC[C@@H]2CCCN2CC)c1O [Eticlopride, eticlopride]
Ki (human DRD3; eticlopride, in Figure 4A): 0.12 nM
